# Test results published in PubChem BioAssay AID2060495 (Molecular Pharmacology Branch, DTP, NCI, 2025).
# “And” between values parts separate entries of the source, which are not always exact repeats. Identical values can stand only once.
# System: 521955-158-R2-J5-PDC complex spheroid viability
# Assay: Anticancer human tumor 521955-158-R2-J5-PDC patient-derived pancreatic carcinoma cell line growth inhibition [GQUAD]
# Conditions: for viability, T/C: stronger effect = lower value; for IC50: curve of compound
# Description: DNA G-quadruplex Stabilizer Agents in Combinations in Complex Spheroids
# A high-throughput screen of multi-cell type tumor spheroids was designed to identify active combinations of DNA G-quadruplex stabilizer agents and targeted small molecules. Complex spheroids include a stromal component modeled by human endothelial cells (HUVEC) and fibroblasts modeled by human mesenchymal stem cells (MSCs). The concentration ranges selected for each drug and investigational agent were based upon clinically achievable concentrations if the clinical Cmax of the agent was known.
# Compounds. The drugs and investigational agents: pidnarulex (CX-5461; NSC782164), APTO-253 (NSC789042), BRACO-19 (NSC847499), peposertib (NSC802822), ceralasertib (NSC780249), elimusertib (NSC800525), camonsertib (NSC841442), AZD-1390 (NSC803789), olaparib (NSC753686), talazoparib (NSC767125), ART-558 (NSC835418), sotorasib (NSC818433), MRTX-1133 (NSC836407), SN-38 (NSC673596), topotecan (NSC609699), etoposide (NSC141540), doxorubicin (NSC123127), gemcitabine (NSC613327), 5-fluorouracil (NSC19893), paclitaxel (NSC125973), vemurafenib (NSC761431), panobinostat (NSC761190), R-306465 (JNJ-16241199; NSC773264), adavosertib (NSC754352), TP-3654 (NSC805149), carboplatin (NSC241240), KSQ-4279 (NSC840948), and staurosporine (NSC755774) were obtained from the National Cancer Institute (NCI) Developmental Therapeutics Program Chemical Repository (34). The FDA-approved anticancer drug set is available from the NCI Developmental Therapeutics Program. […] The stock solutions were prepared in dimethyl sulfoxide (DMSO, Sigma-Aldrich, St. Louis, MO, cat. D2650) at 800-fold the tested concentration and stored at -70 degrees C prior to their use. All drugs and investigational agents were tested over a range starting from a high concentration at or near the clinical Cmax and decreasing in half-log increments. If the clinical Cmax for an agent had not been determined, the highest concentration tested was 10 microM.
# 2.3 Cell Culture. All cells were maintained in an incubator at 37 degrees C and 5% CO2 with 95% humidity. The PDC lines were cultured according to standard operating procedures established by the NCI PDMR. All PDCs were thawed and cultured in Matrigel-coated flasks prepared with a working solution of 1X Ham's F-12 nutrient mix, without supplementation (Invitrogen, cat. 11765054), 100 U/mL penicillin-streptomycin (Invitrogen, cat. 15140122), and 2.5% Matrigel (Corning Inc., cat. 354248) for the first three passages. The 857933-349-R-J2-PDC line was cultured in 6C/Colon 1B media, which includes advanced DMEM/F-12 (Thermo Fisher Scientific, cat. 12634028), 10 mM HEPES (Thermo Fisher Scientific, cat. 15630080), 1X GlutaMAX supplement (Thermo Fisher Scientific, cat. 35050061), 0.1 mg/mL primocin (InvivoGen, cat. ant-pm-2), 10% defined fetal bovine serum, heat inactivated (HyClone Laboratories Inc., cat. SH30070.03HI), 50% L-WRN conditioned media (ATCC, cat. CRL-3276), 1.25 mM N-Acetyl-L-cysteine (Sigma-Aldrich, cat. A9165), 10 mM nicotinamide (Sigma-Aldrich, cat. N0636), 1X B-27 supplement (Thermo Fisher Scientific, cat. 17504044), 1X N-2 supplement (Thermo Fisher Scientific, cat. 17502048), 10 microM Y-27632 dihydrochloride (Tocris Bioscience, cat. 1254), and 50 ng/mL human EGF recombinant protein (Thermo Fisher Scientific, cat. PHG0311). The 485176-168-R4-J1-PDC line was cultured in Panc media, which includes all 6C/Colon 1B media components plus 100 ng/mL human FGF-10 (Thermo Fisher Scientific, cat. 100-26), 500 nM SB-431542 (Selleckchem, cat. S1067), and gastrin (Tocris, cat. 3006).
# […]
# 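Note: spheroids exposed to agents for one week before reading.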
# 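Throughout, for viability, T/C: 100% = DMSO vehicle control viability.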
SMILES,"viability, T/C (compound 0.0316 µM)","viability, T/C (compound 0.1 µM)","viability, T/C (compound 0.316 µM)","viability, T/C (compound 1 µM)","viability, T/C (compound 3.16 µM)","viability, T/C (compound 10 µM)",IC50,"viability, T/C (compound 0.000999 µM)","viability, T/C (compound 0.00316 µM)","viability, T/C (compound 0.00999 µM)","viability, T/C (compound 0.0999 µM)"
C=CC(=O)N1CCN(c2nc(=O)n(-c3c(C)ccnc3C(C)C)c3nc(-c4c(O)cccc4F)c(F)cc23)C(C)C1 (stereo unspecified),86.9% and 107% and 102%,95.5% and 94.6% and 97.9%,84.9% and 115% and 119%,110% and 98.3% and 102%,109% and 115% and 123%,91% and 91.9% and 80.9%,> 10000 nM,–,–,–,–
COc1cc(C2c3cc4c(cc3C(OC3OC5COC(C)OC5C(O)C3O)C3COC(=O)C23)OCO4)cc(OC)c1O (stereo unspecified),95.5% and 105% and 91.1%,66.3% and 70.6% and 95%,79.4% and 67% and 81.2%,29% and 29.6% and 53.9%,14.7% and 15.7% and 30.7%,10.9% and 9.42% and 17.9%,616 nM and 427 nM and 1250 nM,–,–,–,–
CC1COCCN1c1cc(C2(S(C)(=N)=O)CC2)nc(-c2ccnc3[nH]ccc23)n1 (stereo unspecified),109% and 97.3% and 99.7%,100% and 91% and 89.6%,97.3% and 109% and 127%,28% and 45.5% and 25.8%,9.05% and 14.9% and 6.37%,11.1% and 16.7% and 11.6%,693 nM and 909 nM and 705 nM,–,–,–,–
Cc1cccc(N(C)C(=O)C2C(O)CCN2c2nc(C)cc(C(F)(F)F)c2C#N)c1 (stereo unspecified),120% and 113% and 96.8%,86.4% and 98.3% and 105%,90% and 104% and 107%,98.8% and 98.2% and 100%,120% and 115% and 123%,118% and 110% and 140%,> 10000 nM,–,–,–,–
Cc1[nH]c2ccccc2c1CCNCc1ccc(/C=C/C(=O)NO)cc1,103% and 110% and 102%,–,20.8% and 22.1% and 11.1%,–,–,–,118 nM and 111 nM and 103 nM,110% and 125% and 100%,103% and 117% and 100%,139% and 135% and 112%,55.7% and 53.2% and 51%
C=CCn1c(=O)c2cnc(Nc3ccc(N4CCN(C)CC4)cc3)nc2n1-c1cccc(C(C)(C)O)n1,101% and 115% and 102%,70.8% and 67% and 66.1%,30.4% and 29.3% and 16%,17.9% and 15.7% and 7.78%,12.2% and 13.9% and 7.48%,16.8% and 14.4% and 6.61%,181 nM and 167 nM and 145 nM,–,–,–,–
Nc1ccn(C2OC(CO)C(O)C2(F)F)c(=O)n1 (stereo unspecified),95.8% and 80% and 84.4%,86% and 65.7% and 69.4%,75.9% and 57.5% and 71%,17% and 46.2% and 22.6%,9.14% and 18.9% and 7.37%,8.29% and 13.5% and 6.71%,524 nM and 534 nM and 518 nM,–,–,–,–
CCc1c2c(nc3ccc(O)cc13)-c1cc3c(c(=O)n1C2)COC(=O)[C@]3(O)CC,6.38% and 17.9% and 8.13%,–,3% and 10.7% and 2.39%,–,–,–,1.51 nM and 2.59 nM and 1.71 nM,71% and 85.3% and 74.8%,12.1% and 39.8% and 21.3%,7.66% and 28.1% and 9.19%,5.13% and 11.7% and 5.42%
